Experiments:
[1] = test system: CV-1P (African monkey green kidney fibroblasts cells); assay: In vitro transfection of plasmid DNA, β-galactosidase activity per well; type: cell-based; details: for transfection efficiency: CVI-P
Summary of the method: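 CV-1P cells (20 000/well) given compound/DNA complexes at various charge ratios, prepared in 50 mM MES–50 mM HEPES–75 mM NaCl pH 7.2, 0.6 μg DNA/well, for 5 h at 37 °C, then 45 h in growth medium. Lysates assayed for β-galactosidase via oNPG hydrolysis at 405 nm against an E. coli enzyme standard; efficiency expressed as percent of Lipofectin.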

[2] = test system: D407 (human retinal pigment epithelial) cells; assay: as above; type: cell-based; details: for transfection efficiency: D 407
Method: Transfer of plasmid DNA by various compounds was investigated by using CV-1P (African monkey green kidney fibroblasts cells) and D407 (human retinal pigment epithelial) cells.
The cells were cultured in Dulbecco's modified Eagle's medium (DMEM, Gibco), supplemented with 10% fetal bovine serum (FBS), penicillin/streptomycin (100 units/ml and 100 μg/ml respectively) and 2 mM L-glutamine for D 407 cell line. Cell cultures were maintained at 37° C. in a 7% CO2/air incubator. The cells were collected, counted and seeded in growth medium (100 μl) into 96-well culture plate, 20 000 cells per well. One day later the medium was replaced with fresh medium without serum (150 μl)
The complexes at different derivative/DNA charge ratios for transfection procedure were prepared just before use in 50 mM MES—50 mM HEPES—75 mM NaCl buffer, pH 7.2 in separate 96 well plates. One hour after changing the serum-free medium with 10% serum the complexes were added to the cells at 370C. Dose of DNA per well was 0.6 μg. After 5 h the complexes were removed, the cells were washed with PBS, and the normal growth medium was added. After 45 h of incubation at 37° C. the cells were lysed with 2% Triton X 100, twice deep frozen and the β-galactosidase activity in each well was determined spectrofotometrically with ELx800 automated microplate reader (Bio-Tex Instruments Inc., Winooski, Vt. USA) by monitoring the hydrolysis of o-nitrophenylgalactopyranoside (oNPG) at 405 nm. Purified β-galactosidase from E.coli was used to construct a standard curve and to calculate 9-galactosidase activity in the transfected cells. […] Transfection efficiencies are given as percentage in comparison to transfection efficiency of Lipofectin^R.

D 407 cells = assay: Cytotoxicity of amphiphile/DNA complexes, percentage of survived cells; type: cell-based, human; parameters: concentration or dose not given beside the values
plasmid DNA = assay: DNA condensation/complexation, EtBr displacement assay; type: binding
Summary of the method: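 Plasmid DNA (0.6 μg/well) was mixed with 0.002% EtBr in 20 mM HEPES–150 mM NaCl pH 7.4, then cationic liposomes were added at various +/− charge ratios.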

carotid arteries = assay: In vivo gene transfer to collared carotid arteries, X-gal staining; parameters: species or system New Zealand White rabbits; details: rabbit carotid artery
Method: For in vivo studies derivative/plasmid DNA complexes were prepared by the above mentioned method. After gentle swirling the mixtures were allowed to stand in room temperatures for 30 min. prior to use. The complexes were made in phosphate buffer saline and those having +/−charge ratios of 2-8 were used.
Five New Zealand White male rabbits of 2.5-3.5 kg were used. Fentanyl-fluanisone (0,3 mL/kg, s.c., Janssen Pharmaceutica, Beerse, Belgium) and midazolam (1.5 mg/kg, i.m., Roche, Basel, Switzerland) were used for anesthesia. Carotid arteries were exposed using midline neck incision. Arteries were carefully separated from the surrounding tissue and 3 cm silastic collar (MediGene Oy, Kuopio, Finland) was positioned around the artery. Rabbits were re-anesthetized for gene transfer, which was performed 5 days after the installation of the collars. The collars were opened and filled with 600 μL of the gene transfer solution. Rabbits were sacrificed three days after the gene transfer and arteries were removed for histological analyses.
Collared arteries were divided into three equal parts: the proximal third was immersion-fixed in 4% paraformaldehyde/15% sucrose (pH 7.4) for 4 h, rinsed in 15% sucrose (pH 7.4) overnight and embedded in paraffin. The medial third was stored at −70° C. for later analyses. The distal third was immersion-fixed in 4% paraformaldehyde/phosphate buffered saline (pH 7.4) for 30 min, rinsed 24 h in phosphate buffer (pH 7.2) and embedded in OCT compound.
Ten randomly selected frozen sections (10 μm) from each rabbit were stained with X-gal for 18 h to identify β-galactosidase positive cells. Mayers Carmalum-stain was, used as counter stain.

CVI-P cells = assay: Cytotoxicity of amphiphile/DNA complexes, percentage of survived cells
[3] = Preparation of liposomes (vesicle solution); type: physicochemical
Method: Cationic liposomes comprising derivatives I-XXI were prepared by dissolving the crystalline derivative in chloroform. The solvent was evaporated under a stream of nitrogen for 45 min in vacuum. The resulting thin films were resuspended in 4 ml deionized water, vortexed and sonicated in bath type sonicator 30′ until the solution became clear. (The final concentration of liposomes was 2.5 mM.) In order to prepare the liposomes of derivatives I-XXI (Table 2) high temperatures (40-65° C.) were used. Derivatives XXII-XXVII (Table 2) were dissolved in deionized water, vortexed and sonicated 5-7 min in a bath sonicator.

[4] = amphiphile/DNA +/− charge ratio 0.5
[5] = amphiphile/DNA +/− charge ratio 1
[6] = amphiphile/DNA +/− charge ratio 2
[7] = amphiphile/DNA +/− charge ratio 4
[8] = amphiphile/DNA +/− charge ratio 8

| Compound | transfection efficiency [1, 4] | transfection efficiency [1, 5] | transfection efficiency [1, 6] | transfection efficiency [1, 7] | transfection efficiency [1, 8] | transfection efficiency [2, 4] | transfection efficiency [2, 5] | transfection efficiency [2, 6] | transfection efficiency [2, 7] | transfection efficiency [2, 8] | cytotoxicity as a percentage of survived cells (D 407 cells; [4]) | cytotoxicity as a percentage of survived cells (D 407 cells; [5]) | cytotoxicity as a percentage of survived cells (D 407 cells; [6]) | cytotoxicity as a percentage of survived cells (D 407 cells; [7]) | cytotoxicity as a percentage of survived cells (D 407 cells; [8]) | complexation, percentage of the maximum fluorescence signal when EtBr bound to DNA in the absence of an amphiphile (plasmid DNA; [4]) | complexation, percentage of the maximum fluorescence signal when EtBr bound to DNA in the absence of an amphiphile (plasmid DNA; [5]) | complexation, percentage of the maximum fluorescence signal when EtBr bound to DNA in the absence of an amphiphile (plasmid DNA; [6]) | complexation, percentage of the maximum fluorescence signal when EtBr bound to DNA in the absence of an amphiphile (plasmid DNA; [7]) | complexation, percentage of the maximum fluorescence signal when EtBr bound to DNA in the absence of an amphiphile (plasmid DNA; [8]) | other results |
| --- | --- | --- | --- | --- | --- | --- | --- | --- | --- | --- | --- | --- | --- | --- | --- | --- | --- | --- | --- | --- | --- |
| CCCCCCCCCCCCOC(=O)C1=C(C[n+]2ccccc2)NC(C[n+]2ccccc2)=C(C(=O)OCCCCCCCCCCCC)C1c1ccccc1.[Br-].[Br-] [XXIII, 1,1′-{[3,5-Bis(dodecyloxycarbonyl)-1,4-dihydro-4-phenylpyridine-2,6-diyl]dimethylene}bispyridinium dibromide] | 0,44 β-galactosidase units per well | 0,42 β-galactosidase units per well | 65,5 β-galactosidase units per well | 122,8 β-galactosidase units per well | 22,33 β-galactosidase units per well | 0,27 β-galactosidase units per well | 0,27 β-galactosidase units per well | 0,6 β-galactosidase units per well | 35,82 β-galactosidase units per well | 4,43 β-galactosidase units per well | 93,67% | 87,69% | 79,68% | 70,23% | 11,98% | 78,22% | 59,03% | 48,3% | 44,14% | 42,48% | level of transfection compared with DOTAP ([1]; CV1-P cells, FIG. 4): ten times higher; level of transfection compared with Lipofectin ([1]; CV1-P cells, FIG. 4): at least twenty times higher; highest level of beta-galactosidase expression ([1]; confluent CV1-P cells, without serum, without DOPE): 208 mU; level of transfection compared with Lipofectin ([2]; D407 cells, FIG. 4): at least twenty times higher; β-galactosidase activity in arteries, result in words (carotid arteries; X-gal staining): detected at all study groups; gene transfer efficiency (carotid arteries; derivative/plasmid complexes at three charge ratios, three days after gene transfer): 0.05-1.5%; most effective charge ratio (carotid arteries; three charge ratios tested): +4; cytotoxicity as a percentage of survived cells (CVI-P cells; [4]): 99,71%; cytotoxicity as a percentage of survived cells (CVI-P cells; [5]): 94,54%; cytotoxicity as a percentage of survived cells (CVI-P cells; [6]): 93,48%; cytotoxicity as a percentage of survived cells (CVI-P cells; [7]): 89,35%; cytotoxicity as a percentage of survived cells (CVI-P cells; [8]): 42,72% |
| 3′,5′-Bis(cholesteryloxycarbonyl)-1′,4′-dihydro-1,2′,6′-trimethyl-3,4′-bipyridinium iodide [XII] | – | – | – | – | – | – | – | – | – | – | – | – | – | – | – | – | – | – | – | – | vesicle solution preparation, observation in words (phrases split over cells: 'Fast residue & crystalls'; 'No vesicle solution can be prepared') [3]: No |
| CCCCCCCCCCCCCCOC(=O)C1=C(C)NC(C)=C(C(=O)OCCCCCCCCCCCCCC)C1c1ccc[n+](C)c1.I.[I-] [VI, 1′,4′-Dihydro-1,2′,6′-trimethyl-3′,5′-bis(tetradecyloxycarbonyl)-3,4′-bipyridinium iodide] | 0,81 β-galactosidase units per well | 0,82 β-galactosidase units per well | 4,82 β-galactosidase units per well | 2,16 β-galactosidase units per well | 1,27 β-galactosidase units per well | 0,53 β-galactosidase units per well | 16,56 β-galactosidase units per well | 35,6 β-galactosidase units per well | 1,21 β-galactosidase units per well | 1,08 β-galactosidase units per well | 98,6% | 94,43% | 79,12% | 12,13% | 5,11% | 93,25% | 84,75% | 78,9% | 74,85% | 71,05% | melting point: 114 to 115 °C; cytotoxicity as a percentage of survived cells (CVI-P cells; [4]): 94,05%; cytotoxicity as a percentage of survived cells (CVI-P cells; [5]): 89,46%; cytotoxicity as a percentage of survived cells (CVI-P cells; [6]): 90,38%; cytotoxicity as a percentage of survived cells (CVI-P cells; [7]): 45,6%; cytotoxicity as a percentage of survived cells (CVI-P cells; [8]): 7,52% |

Reference: patent publication US20030064954A1, “Cationic amphiphilic 1,4-dihydropyridine derivatives useful for delivery of nucleotide containing compounds” (priority 2000, published 2003)
